According to PubChem BioAssay AID330 (DTP/NCI, 2004):
Where “and” joins values, the source holds several entries; their conditions need not be identical. Equal values may be shown once. Toxic doses and inconclusive results are not listed.

Tested on: P388 leukemia ip, CD2F1 mice, survival T/C
Assay: NCI In Vivo Anticancer Drug Screen. Data for tumor model P388 Leukemia (intraperitoneal) in CD2F1 (CDF1) mice
Settings: endpoint: median survival time, higher = longer survival
Outline: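 Mice carrying the transplanted tumor received test compound or vehicle. Survival was recorded in each group, and the value is the treated-group measurement divided by that of the vehicle-treated control group.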

COc1cc(NCc2ccc3nc(N)nc(N)c3c2C)cc(OC)c1OC
T/C (dose: 1.56 mg/kg/injection, schedule: Q01DX009 (ip), vehicle: Klucel (hydroxypropylcellulose) (HPC)): 112 % of control | T/C (dose: 1.56 mg/kg/injection, schedule: Q01DX009 (ip), vehicle: clinical formulation): 111 % of control | T/C (dose: 1.88 mg/kg/injection, schedule: Q01DX005 (ip), vehicle: Klucel (hydroxypropylcellulose) (HPC)): 121 % of control | T/C (dose: 1.88 mg/kg/injection, schedule: Q01DX005 (ip), vehicle: clinical formulation): 102 % of control | T/C (dose: 1.88 mg/kg/injection, schedule: Q01DX005 (iv), vehicle: clinical formulation): 102 % of control | T/C (dose: 2.1 mg/kg/injection, schedule: Q01DX009 (ip), vehicle: water): 116 % of control | T/C (dose: 2.5 mg/kg/injection, schedule: Q01DX009 (ip), vehicle: sodium bicarbonate): 124 % of control | T/C (dose: 2.52 mg/kg/injection, schedule: Q01DX005 (iv), vehicle: water): 103 % of control | T/C (dose: 3.12 mg/kg/injection, schedule: Q01DX009 (ip), vehicle: Klucel (hydroxypropylcellulose) (HPC)): 124 % of control | T/C (dose: 3.12 mg/kg/injection, schedule: Q01DX009 (ip), vehicle: clinical formulation): 109 % of control | T/C (dose: 3.75 mg/kg/injection, schedule: Q01DX005 (ip), vehicle: Klucel (hydroxypropylcellulose) (HPC)): 124 % of control | T/C (dose: 3.75 mg/kg/injection, schedule: Q01DX005 (ip), vehicle: clinical formulation): 100 % of control | T/C (dose: 3.75 mg/kg/injection, schedule: Q01DX005 (iv), vehicle: clinical formulation): 103 % of control | T/C (dose: 4.19 mg/kg/injection, schedule: Q01DX009 (ip), vehicle: water): 120 % of control | T/C (dose: 5.0 mg/kg/injection, schedule: Q01DX009 (ip), vehicle: sodium bicarbonate): 154 % of control | T/C (dose: 5.03 mg/kg/injection, schedule: Q01DX005 (iv), vehicle: water): 101 % of control | T/C (dose: 6.25 mg/kg/injection, schedule: Q01DX009 (ip), vehicle: clinical formulation): 109 % of control | T/C (dose: 7.2 mg/kg/injection, schedule: Q01DX009 (ip), vehicle: Klucel (hydroxypropylcellulose) (HPC)): 154 % of control | T/C (dose: 7.5 mg/kg/injection, schedule: Q01DX005 (ip), vehicle: clinical formulation): 100 % of control | T/C (dose: 7.5 mg/kg/injection, schedule: Q01DX005 (ip), vehicle: water): 123 % of control | T/C (dose: 7.5 mg/kg/injection, schedule: Q01DX005 (iv), vehicle: clinical formulation): 106 % of control | T/C (dose: 7.5 mg/kg/injection, schedule: Q01DX005 (iv), vehicle: water): 117 % of control | T/C (dose: 7.5 mg/kg/injection, schedule: Q03HX008 (ip), vehicle: water): 124 % of control | T/C (dose: 7.5 mg/kg/injection, schedule: Q03HX024 (ip), vehicle: water): 184 % of control | T/C (dose: 8.64 mg/kg/injection, schedule: Q01DX009 (ip), vehicle: Klucel (hydroxypropylcellulose) (HPC)): 157 % of control | T/C (dose: 10.0 mg/kg/injection, schedule: Q01DX005 (ip), vehicle: Klucel (hydroxypropylcellulose) (HPC)): 171 % of control | T/C (dose: 10.0 mg/kg/injection, schedule: Q01DX009 (ip), vehicle: sodium bicarbonate): 171 % of control and 174 % of control | T/C (dose: 10.1 mg/kg/injection, schedule: Q01DX005 (iv), vehicle: water): 106 % of control | T/C (dose: 12.0 mg/kg/injection, schedule: Q01DX009 (ip), vehicle: Klucel (hydroxypropylcellulose) (HPC)): 173 % of control | T/C (dose: 12.0 mg/kg/injection, schedule: Q03HX006 (ip), vehicle: Klucel (hydroxypropylcellulose) (HPC)): 150 % of control | T/C (dose: 12.5 mg/kg/injection, schedule: Q01DX009 (ip), vehicle: Klucel (hydroxypropylcellulose) (HPC)): 172 % of control | T/C (dose: 12.5 mg/kg/injection, schedule: Q01DX009 (ip), vehicle: clinical formulation): 111 % of control | T/C (dose: 12.5 mg/kg/injection, schedule: Q01DX009 (oral), vehicle: sodium bicarbonate): 110 % of control and 111 % of control | T/C (dose: 12.5 mg/kg/injection, schedule: Q04DX003 (ip), vehicle: Klucel (hydroxypropylcellulose) (HPC)): 180 % of control | T/C (dose: 13.0 mg/kg/injection, schedule: Q04DX002 (ip), vehicle: Klucel (hydroxypropylcellulose) (HPC)): 120 % of control | T/C (dose: 14.4 mg/kg/injection, schedule: Q01DX009 (ip), vehicle: Klucel (hydroxypropylcellulose) (HPC)): 175 % of control | T/C (dose: 15.0 mg/kg/injection, schedule: Q01DX005 (ip), vehicle: Klucel (hydroxypropylcellulose) (HPC)): 152 % of control | T/C (dose: 15.0 mg/kg/injection, schedule: Q01DX005 (ip), vehicle: clinical formulation): 103 % of control | T/C (dose: 15.0 mg/kg/injection, schedule: Q01DX005 (iv), vehicle: clinical formulation): 102 % of control | T/C (dose: 15.0 mg/kg/injection, schedule: Q01DX005 (oral), vehicle: water): 112 % of control | T/C (dose: 15.0 mg/kg/injection, schedule: Q01DX009 (ip), vehicle: water): 153 % of control | T/C (dose: 16.8 mg/kg/injection, schedule: Q01DX009 (ip), vehicle: water): 170 % of control | T/C (dose: 20.0 mg/kg/injection, schedule: Q01DX005 (ip), vehicle: Klucel (hydroxypropylcellulose) (HPC)): 202 % of control | T/C (dose: 20.0 mg/kg/injection, schedule: Q01DX009 (ip), vehicle: Klucel (hydroxypropylcellulose) (HPC)): 207 % of control | T/C (dose: 20.0 mg/kg/injection, schedule: Q01DX009 (ip), vehicle: sodium bicarbonate): 174 % of control and 222 % of control | T/C (dose: 20.0 mg/kg/injection, schedule: Q03HX006 (ip), vehicle: Klucel (hydroxypropylcellulose) (HPC)): 154 % of control | T/C (dose: 20.1 mg/kg/injection, schedule: Q01DX005 (iv), vehicle: water): 120 % of control | T/C (dose: 21.6 mg/kg/injection, schedule: Q01DX005 (ip), vehicle: Klucel (hydroxypropylcellulose) (HPC)): 152 % of control | T/C (dose: 24.0 mg/kg/injection, schedule: Q01DX009 (ip), vehicle: Klucel (hydroxypropylcellulose) (HPC)): 181 % of control | T/C (dose: 25.0 mg/kg/injection, schedule: Q01DX009 (ip), vehicle: Klucel (hydroxypropylcellulose) (HPC)): 200 % of control | T/C (dose: 25.0 mg/kg/injection, schedule: Q01DX009 (ip), vehicle: clinical formulation): 109 % of control | T/C (dose: 25.0 mg/kg/injection, schedule: Q01DX009 (oral), vehicle: sodium bicarbonate): 112 % of control | T/C (dose: 25.0 mg/kg/injection, schedule: Q04DX003 (ip), vehicle: Klucel (hydroxypropylcellulose) (HPC)): 192 % of control | T/C (dose: 30.0 mg/kg/injection, schedule: Q01DX001 (ip), vehicle: water): 108 % of control | T/C (dose: 30.0 mg/kg/injection, schedule: Q01DX001 (iv), vehicle: water): 111 % of control | T/C (dose: 30.0 mg/kg/injection, schedule: Q01DX005 (ip), vehicle: Klucel (hydroxypropylcellulose) (HPC)): 189 % of control | T/C (dose: 30.0 mg/kg/injection, schedule: Q01DX005 (ip), vehicle: clinical formulation): 100 % of control | T/C (dose: 30.0 mg/kg/injection, schedule: Q01DX005 (iv), vehicle: clinical formulation): 105 % of control | T/C (dose: 30.0 mg/kg/injection, schedule: Q01DX009 (ip), vehicle: water): 170 % of control | T/C (dose: 30.0 mg/kg/injection, schedule: Q01DX009 (oral), vehicle: water): 161 % of control | T/C (dose: 30.0 mg/kg/injection, schedule: Q04DX003 (ip), vehicle: water): 123 % of control | T/C (dose: 33.3 mg/kg/injection, schedule: Q01DX009 (ip), vehicle: Klucel (hydroxypropylcellulose) (HPC)): 218 % of control | T/C (dose: 33.3 mg/kg/injection, schedule: Q03HX006 (ip), vehicle: Klucel (hydroxypropylcellulose) (HPC)): 159 % of control | T/C (dose: 33.6 mg/kg/injection, schedule: Q01DX009 (ip), vehicle: water): 175 % of control | T/C (dose: 36.0 mg/kg/injection, schedule: Q01DX005 (ip), vehicle: Klucel (hydroxypropylcellulose) (HPC)): 195 % of control | T/C (dose: 40.0 mg/kg/injection, schedule: Q01DX005 (ip), vehicle: Klucel (hydroxypropylcellulose) (HPC)): 240 % of control | T/C (dose: 40.0 mg/kg/injection, schedule: Q01DX009 (ip), vehicle: Klucel (hydroxypropylcellulose) (HPC)): 102 % of control | T/C (dose: 40.0 mg/kg/injection, schedule: Q01DX009 (ip), vehicle: sodium bicarbonate): 242 % of control and 91 % of control | T/C (dose: 50.0 mg/kg/injection, schedule: Q01DX009 (ip), vehicle: Klucel (hydroxypropylcellulose) (HPC)): 225 % of control | T/C (dose: 50.0 mg/kg/injection, schedule: Q01DX009 (ip), vehicle: clinical formulation): 118 % of control | T/C (dose: 50.0 mg/kg/injection, schedule: Q01DX009 (oral), vehicle: sodium bicarbonate): 191 % of control | T/C (dose: 50.0 mg/kg/injection, schedule: Q04DX003 (ip), vehicle: Klucel (hydroxypropylcellulose) (HPC)): 201 % of control | T/C (dose: 60.0 mg/kg/injection, schedule: Q01DX001 (ip), vehicle: water): 104 % of control | T/C (dose: 60.0 mg/kg/injection, schedule: Q01DX001 (iv), vehicle: water): 113 % of control | T/C (dose: 60.0 mg/kg/injection, schedule: Q01DX001 (oral), vehicle: water): 120 % of control | T/C (dose: 60.0 mg/kg/injection, schedule: Q01DX005 (ip), vehicle: Klucel (hydroxypropylcellulose) (HPC)): 176 % of control and 198 % of control | T/C (dose: 60.0 mg/kg/injection, schedule: Q01DX005 (ip), vehicle: clinical formulation): 100 % of control | T/C (dose: 60.0 mg/kg/injection, schedule: Q01DX005 (oral), vehicle: water): 153 % of control | T/C (dose: 60.0 mg/kg/injection, schedule: Q01DX009 (ip), vehicle: water): 170 % of control | T/C (dose: 60.0 mg/kg/injection, schedule: Q03HX008 (ip), vehicle: water): 120 % of control | T/C (dose: 60.0 mg/kg/injection, schedule: Q03HX024 (ip), vehicle: water): 115 % of control | T/C (dose: 60.0 mg/kg/injection, schedule: Q04DX002 (ip), vehicle: Klucel (hydroxypropylcellulose) (HPC)): 151 % of control | T/C (dose: 60.0 mg/kg/injection, schedule: Q04DX003 (ip), vehicle: water): 115 % of control | T/C (dose: 80.0 mg/kg/injection, schedule: Q01DX005 (ip), vehicle: Klucel (hydroxypropylcellulose) (HPC)): 96 % of control | T/C (dose: 100.0 mg/kg/injection, schedule: Q01DX005 (ip), vehicle: Klucel (hydroxypropylcellulose) (HPC)): 116 % of control | T/C (dose: 100.0 mg/kg/injection, schedule: Q01DX009 (oral), vehicle: sodium bicarbonate): 94 % of control | T/C (dose: 100.0 mg/kg/injection, schedule: Q04DX002 (ip), vehicle: Klucel (hydroxypropylcellulose) (HPC)): 211 % of control | T/C (dose: 100.0 mg/kg/injection, schedule: Q04DX003 (ip), vehicle: Klucel (hydroxypropylcellulose) (HPC)): 230 % of control | T/C (dose: 120.0 mg/kg/injection, schedule: Q01DX001 (ip), vehicle: water): 106 % of control | T/C (dose: 120.0 mg/kg/injection, schedule: Q01DX001 (oral), vehicle: water): 115 % of control | T/C (dose: 120.0 mg/kg/injection, schedule: Q01DX005 (oral), vehicle: water): 170 % of control | T/C (dose: 120.0 mg/kg/injection, schedule: Q04DX003 (ip), vehicle: water): 118 % of control | T/C (dose: 200.0 mg/kg/injection, schedule: Q04DX003 (ip), vehicle: Klucel (hydroxypropylcellulose) (HPC)): 103 % of control | T/C (dose: 240.0 mg/kg/injection, schedule: Q01DX001 (oral), vehicle: water): 124 % of control | T/C (dose: 480.0 mg/kg/injection, schedule: Q01DX001 (oral), vehicle: water): 157 % of control
